{"source": "paper PMC6181586", "about": "(Chemical communications (Cambridge, England), 2018)", "target": "CatB (Homo sapiens, UniProt P07858)", "experiment": "SDS-PAGE of adduct formation with CatB", "type": "biochemical", "details": "co-incubation with conjugates and CatB, SDS-PAGE autoradiography", "data": [{"smiles": "CCCNC(=O)[C@H]1O[C@@H]1C(=O)N[C@H](C(=O)N1CCC[C@H]1C(=O)O)[C@@H](C)CC", "note": "[CA-074]", "values": [{"measurement": "Effect of co-incubation on CatB adducts of the conjugates", "value": "eliminated observable CatB adducts"}]}]}
